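48-hour exposure; five concentrations; linearly interpolated endpoints. GI50 = concentration required for 50% inhibition of growth. TGI: concentration producing complete growth inhibition.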
Key:
Experiment in all cases: growth of human tumour cells (NCI), 48 h
SK-OV-3 ovarian = tested on: SK-OV-3 ovarian
IGROV1 ovarian = tested on: IGROV1 ovarian
NCI-H23 lung = tested on: NCI-H23 lung
CAKI-1 renal = tested on: CAKI-1 renal
LOX IMVI melanoma = tested on: LOX IMVI melanoma
NCI-H226 lung = tested on: NCI-H226 lung
SK-MEL-2 melanoma = tested on: SK-MEL-2 melanoma
HT29 colon = tested on: HT29 colon
COLO 205 colon = tested on: COLO 205 colon
786-0 renal = tested on: 786-0 renal

SMILES	GI50 (SK-OV-3 ovarian) [µM]	TGI (SK-OV-3 ovarian) [µM]	GI50 (IGROV1 ovarian) [µM]	TGI (IGROV1 ovarian) [µM]	GI50 (NCI-H23 lung) [µM]	TGI (NCI-H23 lung) [µM]	GI50 (CAKI-1 renal) [µM]	TGI (CAKI-1 renal) [µM]	GI50 (LOX IMVI melanoma) [µM]	TGI (LOX IMVI melanoma) [µM]	GI50 (NCI-H226 lung) [µM]	TGI (NCI-H226 lung) [µM]	GI50 (SK-MEL-2 melanoma) [µM]	TGI (SK-MEL-2 melanoma) [µM]	GI50 (HT29 colon) [µM]	TGI (HT29 colon) [µM]	GI50 (COLO 205 colon) [µM]	TGI (COLO 205 colon) [µM]	GI50 (786-0 renal) [µM]	TGI (786-0 renal) [µM]
CN(C[C@@H]1COCCO1)S(=O)(=O)Nc1ccc2ccc3ncc(-c4cnn(C)c4)cc3c(=O)c2c1	3.04	> 100	2.5	> 100	1.77	> 100	1.94	> 27.4	3.37	> 100	2.62	> 100	3.12	> 29.4	19.7	> 100	19.3	> 100	6.04	> 100
Cc1ccc(C)c(NC(=O)CCc2nc(=S)[nH][nH]2)c1	–	> 100	–	> 100	–	> 100	–	> 100	–	> 100	–	> 100	–	> 100	–	> 100	–	> 100	–	> 100
COc1ccc(C(=O)c2cc3c(N)c(C(=O)Nc4cccc(Cl)c4C)sc3nc2C)cc1	0.161	> 25	0.145	> 25	0.173	> 25	0.0995	> 25	0.154	> 25	0.277	> 25	0.215	> 25	0.0863	> 25	0.109	7.13	0.187	> 25
CCN1C(=O)N(c2ccccc2)C2NN=c3s/c(=C4\C(=O)N(C(C)C)c5ccccc54)c(=O)n3C21 (stereo not given)	1.07	> 100	1.55	> 100	1.47	28.2	0.661	8.06	2.17	11.2	3.7	31.4	5.99	> 100	1.08	> 100	0.54	24.5	1.95	8.64
Cc1ccc2[nH]c3c(ncc4[nH]c5ccccc5c43)c2c1	–	25.2	–	29.6	–	> 10	–	31.6	–	31.6	–	30.4	–	33.6	–	24	–	34.3	–	31.5
C#CCOc1cccc(Nc2ncnc3ccc(NC(=O)CCl)cc23)c1	2.59	> 100	0.164	2.77	2.87	29.9	0.22	12.7	0.0933	3.89	7.43	> 100	4.07	24.1	0.0981	6.87	0.463	16.8	0.208	2.84
CCCCCC/C=C\CCCCCCCCCC1=CC(=O)C=C(OC)C1=O	–	16	–	3.86	–	12	–	9.65	–	13.9	–	11.1	–	18.3	–	11.8	–	3.24	–	17
N[C@@H]1CCCN(c2c(/C=C3\SC(=O)NC3=O)cccc2-c2ccccc2)C1	15.5	35	17.2	35.1	15.3	33.1	15	31.7	15.7	30.1	12.8	36.9	15.2	30.3	12.8	27.8	11.6	25.5	15.4	29.8

— PubChem BioAssay (NCI)
